Data reported in the NIST ThermoML archive (doi:10.1016/j.jct.2013.10.034).
Numbers after ± are expanded uncertainties.

Assays:
[1] = Liquid; for viscosity / mass density: 100 kPa; for viscosity: Falling or rolling sphere viscometry; for mass density: Vibrating tube method; for vapor or sublimation pressure: Ebulliometric method (Recirculating still)
[2] = xn = mol fraction of the nth substance listed; conditions: 100 kPa, Liquid, x2 = 0; for viscosity: Falling or rolling sphere viscometry; for mass density: Vibrating tube method

SMILES | viscosity ([1]; 298.15 K) [mPa·s] | mass density ([1]; 298.15 K) [kg/m3] | viscosity ([1]; 303.15 K) [mPa·s] | mass density ([1]; 303.15 K) [kg/m3] | viscosity ([1]; 308.15 K) [mPa·s] | mass density ([1]; 308.15 K) [kg/m3] | viscosity ([1]; 313.15 K) [mPa·s] | mass density ([1]; 313.15 K) [kg/m3] | viscosity ([1]; 318.15 K) [mPa·s] | mass density ([1]; 318.15 K) [kg/m3] | viscosity ([1]; 323.15 K) [mPa·s] | mass density ([1]; 323.15 K) [kg/m3] | viscosity ([1]; 328.15 K) [mPa·s] | mass density ([1]; 328.15 K) [kg/m3] | viscosity ([1]; 333.15 K) [mPa·s] | mass density ([1]; 333.15 K) [kg/m3] | viscosity ([1]; 338.15 K) [mPa·s] | mass density ([1]; 338.15 K) [kg/m3] | viscosity ([1]; 343.15 K) [mPa·s] | mass density ([1]; 343.15 K) [kg/m3] | further results
CCCC[N+]1(C)CCCCC1.N#C[N-]C#N [1-butyl-1-methylpiperidinium dicyanamide] | 123.3 ± 20 | 1016.13 ± 0.5 | 92.97 ± 15 | 1012.98 ± 0.5 | 75.58 ± 12 | 1010.65 ± 0.49 | 60.93 ± 9.8 | 1007.92 ± 0.49 | 49.79 ± 8 | 1005.2 ± 0.49 | 41.31 ± 6.6 | 1002.47 ± 0.48 | 34.72 ± 5.6 | 999.77 ± 0.48 | 29.45 ± 4.7 | 997.08 ± 0.48 | 23.31 ± 3.7 | 994.39 ± 0.48 | 21.98 ± 3.5 | 991.72 ± 0.48 | –
CCCC[N+]1(C)CCCC1.N#CN=C=[N-] [1-butyl-1-methylpyrrolidinium dicyanamide] | 34.74 ± 5.6 | 1019.2 ± 1.4 | 29.33 ± 4.7 | 1016.38 ± 1.4 | 25.09 ± 4 | 1013.58 ± 1.3 | 21.7 ± 3.5 | 1010.79 ± 1.3 | 18.95 ± 3 | 1008 ± 1.3 | 16.72 ± 2.7 | 1005.23 ± 1.3 | 14.84 ± 2.4 | 1002.48 ± 1.3 | 13.28 ± 2.1 | 999.74 ± 1.3 | 11.96 ± 1.9 | 997 ± 1.3 | 10.82 ± 1.7 | 994.28 ± 1.3 | –
O [water] | 0.89 ± 0.14 | – | 0.808 ± 0.13 | – | 0.74 ± 0.12 | – | 0.681 ± 0.11 | 992.15 ± 0.2 | 0.63 ± 0.1 | 990.14 ± 0.2 | 0.593 ± 0.095 | 987.93 ± 0.2 | 0.56 ± 0.09 | 985.61 ± 0.2 | 0.528 ± 0.085 | 983.17 ± 0.2 | 0.5 ± 0.08 | 980.3 ± 0.2 | 0.473 ± 0.076 | 978.1 ± 0.2 | vapor or sublimation pressure ([1]; 328.15 K): 15.8 ± 0.5 kPa; vapor or sublimation pressure ([1]; 338.15 K): 25.1 ± 0.5 kPa; vapor or sublimation pressure ([1]; 348.15 K): 38.6 ± 0.5 kPa; vapor or sublimation pressure ([1]; 358.15 K): 57.9 ± 0.5 kPa; vapor or sublimation pressure ([1]; 368.15 K): 84.4 ± 0.5 kPa
O [water] + CCCC[N+]1(C)CCCC1.N#CN=C=[N-] | – | – | – | – | – | – | – | – | – | – | – | – | – | – | – | – | – | – | – | – | viscosity ([2]; 298.15 K): 0.89 ± 0.14 mPa·s; viscosity ([2]; 303.15 K): 0.808 ± 0.13 mPa·s; viscosity ([2]; 308.15 K): 0.74 ± 0.12 mPa·s; viscosity ([2]; 313.15 K): 0.681 ± 0.11 mPa·s; mass density ([2]; 313.15 K): 992.15 ± 0.2 kg/m3; viscosity ([2]; 318.15 K): 0.63 ± 0.1 mPa·s; mass density ([2]; 318.15 K): 990.14 ± 0.2 kg/m3; viscosity ([2]; 323.15 K): 0.593 ± 0.095 mPa·s; mass density ([2]; 323.15 K): 987.93 ± 0.2 kg/m3; viscosity ([2]; 328.15 K): 0.56 ± 0.09 mPa·s; mass density ([2]; 328.15 K): 985.61 ± 0.2 kg/m3; viscosity ([2]; 333.15 K): 0.528 ± 0.085 mPa·s; mass density ([2]; 333.15 K): 983.17 ± 0.2 kg/m3; viscosity ([2]; 338.15 K): 0.5 ± 0.08 mPa·s; mass density ([2]; 338.15 K): 980.3 ± 0.2 kg/m3; viscosity ([2]; 343.15 K): 0.473 ± 0.076 mPa·s; mass density ([2]; 343.15 K): 978.1 ± 0.2 kg/m3
O [water] + CCCC[N+]1(C)CCCCC1.N#C[N-]C#N | – | – | – | – | – | – | – | – | – | – | – | – | – | – | – | – | – | – | – | – | viscosity ([2]; 298.15 K): 0.89 ± 0.14 mPa·s; viscosity ([2]; 303.15 K): 0.808 ± 0.13 mPa·s; viscosity ([2]; 308.15 K): 0.74 ± 0.12 mPa·s; viscosity ([2]; 313.15 K): 0.681 ± 0.11 mPa·s; mass density ([2]; 313.15 K): 992.15 ± 0.2 kg/m3; viscosity ([2]; 318.15 K): 0.63 ± 0.1 mPa·s; mass density ([2]; 318.15 K): 990.14 ± 0.2 kg/m3; viscosity ([2]; 323.15 K): 0.593 ± 0.095 mPa·s; mass density ([2]; 323.15 K): 987.93 ± 0.2 kg/m3; viscosity ([2]; 328.15 K): 0.56 ± 0.09 mPa·s; mass density ([2]; 328.15 K): 985.61 ± 0.2 kg/m3; viscosity ([2]; 333.15 K): 0.528 ± 0.085 mPa·s; mass density ([2]; 333.15 K): 983.17 ± 0.2 kg/m3; viscosity ([2]; 338.15 K): 0.5 ± 0.08 mPa·s; mass density ([2]; 338.15 K): 980.3 ± 0.2 kg/m3; viscosity ([2]; 343.15 K): 0.473 ± 0.076 mPa·s; mass density ([2]; 343.15 K): 978.1 ± 0.2 kg/m3
